In US11952377B2, “Quinolines and azaquinolines as inhibitors of CD38” (BOEHRINGER INGELHEIM INTERNATIONAL GMBH, priority 2021, dated 2024) one finds IC50 data, which are given here for 25 compounds.

By IC50 is commonly meant the midpoint of a concentration-inhibition curve.

The test deals with Human CD38 (Homo sapiens (Human), UniProt P28907). Nature of the test: CD38 enzyme assay. In kind it is biochemical. Particulars: 2 nM CD38, 30 min preincubation at 25° C., absorbance at 405 nm after 60 minutes. From the text: [formula] where CMPD is the value for the individual compound treated well, MIN is the average of the values of the 4-(((1r,4r)-4-(2-methoxyethoxy)cyclohexyl)amino)-1-methyl-6-(thiazol-5-yl)quinolin-2(1H)-one positive control wells and MAX is the average of the values of the DMSO negative control wells.
The % inhibition values were plotted as a function of compound concentration and the following 4-parameter fit was applied to derive the IC50 values:
[formula] where top and bottom are normally allowed to float, but may be fixed at 100 or 0 respectively in a 3-parameter fit. The Hill Coefficient is normally allowed to float but may also be fixed at 1 in a 3-parameter fit. Y is the % inhibition and X is the compound concentration.

Chain of Human CD38 (P28907 whole entry): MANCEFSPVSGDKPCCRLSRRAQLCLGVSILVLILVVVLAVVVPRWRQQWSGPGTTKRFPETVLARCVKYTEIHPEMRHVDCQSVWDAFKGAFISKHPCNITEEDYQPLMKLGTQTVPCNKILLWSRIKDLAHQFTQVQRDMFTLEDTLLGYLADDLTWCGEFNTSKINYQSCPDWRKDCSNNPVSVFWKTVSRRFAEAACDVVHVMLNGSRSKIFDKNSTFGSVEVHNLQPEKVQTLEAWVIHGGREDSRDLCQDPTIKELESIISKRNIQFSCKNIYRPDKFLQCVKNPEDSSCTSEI

`COCCO[C@H]1CC[C@H](Nc2cc(=O)n(C)c3ccc(-n4ccnc4)cc23)CC1` [Example 1, 6-(1H-imidazol-1-yl)-4-(((1r,4r)-4-(2-methoxyethoxy)cyclohexyl)amino)-1-methylquinolin-2(1H)-one] returned a concentration for half-maximal inhibition (IC50) of 10 to 100 nM.

Compound `Cn1c(=O)cc(N[C@H]2CC[C@H](NC3COC3)CC2)c2cc(-n3ccnc3)ccc21` [Example 2, 6-(1H-imidazol-1-yl)-1-methyl-4-(((1r,4r)-4-(oxetan-3-ylamino)cyclohexyl)amino)quinolin-2(1H)-one] returned an IC50 of 10 to 100 nM.

Compound `COCCO[C@H]1CC[C@H](Nc2cc(=O)n(C)c3ccc(-n4ccnc4)nc23)CC1` [Example 3, 6-(1H-imidazol-1-yl)-4-(((1r,4r)-4-(2-methoxyethoxy)cyclohexyl)amino)-1-methyl-1,5-naphthyridin-2(1H)-one] showed an IC50 of 10 to 100 nM.

The compound `Cn1c(=O)cc(N[C@H]2CC[C@H](C(C)(C)O)CC2)c2nc(-n3ccnc3)ccc21` [Example 4, 4-(((1r,4r)-4-(2-hydroxypropan-2-yl)cyclohexyl)amino)-6-(1H-imidazol-1-yl)-1-methyl-1,5-naphthyridin-2(1H)-one] came in with a half-maximal inhibitory concentration (IC50) of 10 to 100 nM.

As for `Cn1c(=O)cc(N[C@H]2CC[C@H](C(C)(C)O)CC2)c2cc(-n3ccnc3)ncc21` [Example 5, 4-(((1r,4r)-4-(2-hydroxypropan-2-yl)cyclohexyl)amino)-6-(1H-imidazol-1-yl)-1-methyl-1,7-naphthyridin-2(1H)-one], the IC50 was 10 to 100 nM.

Regarding `COCCO[C@H]1CC[C@H](Nc2cc(=O)n(C)c3cnc(-n4ccnc4)cc23)CC1` [Example 6, 6-(1H-imidazol-1-yl)-4-(((1r,4r)-4-(2-methoxyethoxy)cyclohexyl)amino)-1-methyl-1,7-naphthyridin-2(1H)-one], the IC50 was in the range of 10 to 100 nM.

`COCCO[C@H]1CC[C@H](Nc2cc(=O)n(C)c3cnc(-n4ccnc4)nc23)CC1` [Example 7, 2-(1H-imidazol-1-yl)-8-(((1r,4r)-4-(2-methoxyethoxy)cyclohexyl)amino)-5-methylpyrido[3,2-d]pyrimidin-6(5H)-one] yielded an IC50 of 10 to 100 nM.

In turn, `Cn1c(=O)cc(N[C@H]2CC[C@H](C(C)(C)O)CC2)c2nc(-n3ccnc3)ncc21` [Example 8, 8-(((1r,4r)-4-(2-hydroxypropan-2-yl)cyclohexyl)amino)-2-(1H-imidazol-1-yl)-5-methylpyrido[3,2-d]pyrimidin-6(5H)-one] yielded an IC50 of under 10 nM.

In turn, `Cn1c(=O)cc(Nc2ccc(C(F)(F)F)cc2)c2nc(-n3ccnc3)ncc21` [Example 9, 2-(1H-imidazol-1-yl)-5-methyl-8-((4-(trifluoromethyl)phenyl)amino)pyrido[3,2-d]pyrimidin-6(5H)-one] returned an IC50 of under 10 nM.

Compound `Cn1c(=O)cc(Nc2ccc(OCCN3CCOCC3)nc2)c2nc(-n3ccnc3)ncc21` [Example 10, 2-(1H-imidazol-1-yl)-5-methyl-8-((6-(2-morpholinoethoxy)pyridin-3-yl)amino)pyrido[3,2-d]pyrimidin-6(5H)-one] came in with an IC50 of 10 to 100 nM.

For the compound `Cn1c(=O)cc(N[C@H]2CC[C@H](NCC(F)(F)F)CC2)c2cc(-n3ccnc3)ccc21` [Example 11, 6-(1H-imidazol-1-yl)-1-methyl-4-(((1r,4r)-4-((2,2,2-trifluoroethyl)amino)cyclohexyl)amino)quinolin-2(1H)-one], the IC50 lay in the range of 10 to 100 nM.

`Cn1c(=O)cc(N[C@H]2CC[C@H](C(C)(C)O)CC2)c2cc(-n3ccnc3)ccc21` [Example 12, 4-(((1r,4r)-4-(2-hydroxypropan-2-yl)cyclohexyl)amino)-6-(1H-imidazol-1-yl)-1-methylquinolin-2(1H)-one] returned a concentration for half-maximal inhibition (IC50) of 10 to 100 nM.

Compound `Cn1c(=O)cc(NC2CCN(S(C)(=O)=O)CC2)c2cc(-n3ccnc3)ccc21` [Example 13] came in with an IC50 of 10 to 100 nM.

`CN(C)C(=O)CO[C@H]1CC[C@H](Nc2cc(=O)n(C)c3ccc(-n4ccnc4)cc23)CC1` [Example 14, 2-(((1r,4r)-4-((6-(1H-imidazol-1-yl)-1-methyl-2-oxo-1,2-dihydroquinolin-4-yl)amino)cyclohexyl)oxy)-N,N-dimethylacetamide] returned a half-maximal inhibitory concentration (IC50) of 10 to 100 nM.

Consider `Cn1c(=O)cc(Nc2ccc(OCC(F)(F)F)nc2)c2cc(-n3ccnc3)ccc21` [Example 15, 6-(1H-imidazol-1-yl)-1-methyl-4-((6-(2,2,2-trifluoroethoxy)pyridin-3-yl)amino)quinolin-2(1H)-one], for which the half-maximal inhibitory concentration (IC50) was in the range of 10 to 100 nM.

Consider `CN(C)CCOc1ccc(Nc2cc(=O)n(C)c3ccc(-n4ccnc4)cc23)cn1` [Example 17, 4-((6-(2-(dimethylamino)ethoxy)pyridin-3-yl)amino)-6-(1H-imidazol-1-yl)-1-methylquinolin-2(1H)-one], for which the IC50 fell in the range of 10 to 100 nM.

`Cn1c(=O)cc(N[C@H]2CC[C@H](OCCN3CCCC3)CC2)c2cc(-n3ccnc3)ccc21` [Example 18, 6-(1H-imidazol-1-yl)-1-methyl-4-(((1r,4r)-4-(2-(pyrrolidin-1-yl)ethoxy)cyclohexyl)amino)quinolin-2(1H)-one] yielded a half-maximal inhibitory concentration (IC50) of 10 to 100 nM.

With `Cn1c(=O)cc(N[C@H]2CC[C@H](NCC(C)(F)F)CC2)c2nc(-n3ccnc3)ncc21` [Example 19, 8-(((1r,4r)-4-((2,2-difluoropropyl)amino)cyclohexyl)amino)-2-(1H-imidazol-1-yl)-5-methylpyrido[3,2-d]pyrimidin-6(5H)-one], the IC50 is under 10 nM.

In turn, `CN(C)C(=O)CO[C@H]1CC[C@H](Nc2cc(=O)n(C)c3cnc(-n4ccnc4)nc23)CC1` [Example 21, 2-(((1r,4r)-4-((2-(1H-imidazol-1-yl)-5-methyl-6-oxo-5,6-dihydropyrido[3,2-d]pyrimidin-8-yl)amino)cyclohexyl)oxy)-N,N-dimethylacetamide] had an IC50 of 10 to 100 nM.

`Cn1c(=O)cc(Nc2ccc(C#N)cc2)c2nc(-n3ccnc3)ncc21` [Example 22, 4-((2-(1H-imidazol-1-yl)-5-methyl-6-oxo-5,6-dihydropyrido[3,2-d]pyrimidin-8-yl)amino)benzonitrile] had an IC50 of under 10 nM.

`Cn1c(=O)cc(N[C@H]2CC[C@H](NCC(F)(F)F)CC2)c2nc(-n3ccnc3)ncc21` [Example 23, 2-(1H-imidazol-1-yl)-5-methyl-8-(((1r,4r)-4-((2,2,2-trifluoroethyl)amino)cyclohexyl)amino)pyrido[3,2-d]pyrimidin-6(5H)-one] yielded an IC50 of under 10 nM.

Consider `CO[C@H]1CC[C@H](Nc2cc(=O)n(C)c3cnc(-n4ccnc4)nc23)CC1` [Example 24, 2-(1H-imidazol-1-yl)-8-(((1r,4r)-4-methoxycyclohexyl)amino)-5-methylpyrido[3,2-d]pyrimidin-6(5H)-one], for which the concentration for half-maximal inhibition (IC50) was under 10 nM.

With `Cn1c(=O)cc(Nc2ccc(OCCN3CCCC3)nc2)c2nc(-n3ccnc3)ncc21` [Example 25], the 50% inhibitory concentration (IC50) was in the range of 10 to 100 nM.

In turn, `Cn1c(=O)cc(NC2CCC(F)(F)CC2)c2nc(-n3ccnc3)ncc21` [Example 26, 8-((4,4-difluorocyclohexyl)amino)-2-(1H-imidazol-1-yl)-5-methylpyrido[3,2-d]pyrimidin-6(5H)-one] yielded a half-inhibitory concentration (IC50) of under 10 nM.

In turn, `Cn1c(=O)cc(N[C@H]2CC[C@H](C3(O)CC3)CC2)c2nc(-n3ccnc3)ncc21` [Example 27, 8-(((1r,4r)-4-(1-hydroxycyclopropyl)cyclohexyl)amino)-2-(1H-imidazol-1-yl)-5-methylpyrido[3,2-d]pyrimidin-6(5H)-one] came in with a half-inhibitory concentration (IC50) of under 10 nM.
